{"source": "ChEMBL document CHEMBL1142979", "about": "“Nonprenylated rotenoids, a new class of potent breast cancer resistance protein inhibitors” (J Med Chem, 2007)", "type_in_all_cases": "cell-based", "key": {"BCRP (ABCG2)": {"molecular_target": "T1, BCRP (ABCG2) (Homo sapiens, UniProt Q9UNQ0)", "T1 sequence (Q9UNQ0 whole entry)": "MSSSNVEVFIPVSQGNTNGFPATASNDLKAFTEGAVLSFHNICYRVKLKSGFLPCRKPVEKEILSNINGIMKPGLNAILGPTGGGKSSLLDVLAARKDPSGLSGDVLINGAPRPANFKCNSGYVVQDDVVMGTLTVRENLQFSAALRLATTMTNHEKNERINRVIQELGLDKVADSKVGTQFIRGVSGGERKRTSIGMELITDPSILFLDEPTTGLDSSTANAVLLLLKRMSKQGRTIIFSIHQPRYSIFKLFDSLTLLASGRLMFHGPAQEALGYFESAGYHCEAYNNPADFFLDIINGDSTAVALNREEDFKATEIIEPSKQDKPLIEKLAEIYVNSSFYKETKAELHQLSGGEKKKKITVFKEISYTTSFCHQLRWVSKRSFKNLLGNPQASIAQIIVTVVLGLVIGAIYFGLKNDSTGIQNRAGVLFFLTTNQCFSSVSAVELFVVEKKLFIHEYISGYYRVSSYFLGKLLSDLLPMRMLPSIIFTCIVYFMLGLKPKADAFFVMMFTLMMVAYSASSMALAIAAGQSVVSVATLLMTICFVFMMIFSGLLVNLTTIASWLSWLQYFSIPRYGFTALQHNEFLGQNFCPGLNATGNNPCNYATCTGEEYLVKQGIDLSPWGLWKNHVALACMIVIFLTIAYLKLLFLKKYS", "assay": "Inhibition of BCRP expressed in human HEK293 cells assessed as maximal mitoxantrone accumulation at 20 uM relative control", "conditions": "HEK293 cells that express BCRP, probe mitoxantrone, read-out: Activity"}, "[1]": {"molecular_target": "T2, Broad substrate specificity ATP-binding cassette transporter ABCG2 (Homo sapiens, UniProt Q9UNQ0)", "T2 sequence (Q9UNQ0 whole entry)": "T1 sequence (Q9UNQ0 whole entry)", "assay": "Inhibition of BCRP expressed in human HEK293 cells assessed as maximal mitoxantrone accumulation at 10 uM relative control", "design": "scale not given: the % may be the effect or the level left", "conditions": "hek293, 10 µM"}, "[2]": {"molecular_target": "T2, Broad substrate specificity ATP-binding cassette transporter ABCG2", "assay": "Inhibition of BCRP expressed in human HEK293 cells assessed as maximal mitoxantrone accumulation at 5 uM relative control", "design": "scale not given: the % may be the effect or the level left", "conditions": "hek293, 5 µM"}, "[3]": {"molecular_target": "T2, Broad substrate specificity ATP-binding cassette transporter ABCG2", "assay": "Inhibition of BCRP expressed in human HEK293 cells assessed as maximal mitoxantrone accumulation"}}, "data": [{"smiles": "COc1cc2oc3c(c(=O)c2c(O)c1C)-c1cccc(O)c1OC3O", "note": "(stereo not drawn) [9-O-METHYL-4-HYDROXYBOERAVINONE B]", "values": [{"measurement": "Emax at 20 µM", "setting": "BCRP (ABCG2)", "value": 15, "unit": "%"}]}, {"smiles": "COC1Oc2ccccc2-c2c1oc1cc(O)c(C)c(O)c1c2=O", "note": "(stereo not drawn) [BOERAVINONE A]", "values": [{"measurement": "Activity", "setting": "[1]", "value": 27, "unit": "%"}]}, {"smiles": "Cc1c(O)cc2oc3c(c(=O)c2c1O)-c1ccccc1OC3O", "note": "(stereo not drawn) [BOERAVINONE B]", "values": [{"measurement": "Activity", "setting": "[1]", "value": 55, "unit": "%"}]}, {"smiles": "COc1cc2c(c(O)c1C)C(=O)[C@]1(O)c3cccc(O)c3OC[C@H]1O2", "note": "[BOERAVINONE C]", "values": [{"measurement": "Activity", "setting": "[1]", "value": 31, "unit": "%"}]}, {"smiles": "Cc1c(O)cc2oc3c(c(=O)c2c1O)-c1ccc(O)cc1OC3O", "note": "(stereo not drawn) [BOERAVINONE E]", "values": [{"measurement": "Activity", "setting": "[1]", "value": 56, "unit": "%"}]}, {"smiles": "COc1cc(O)c2c(=O)c3c(oc2c1)C(OC)Oc1c(O)cccc1-3", "note": "(stereo not drawn) [BOERAVINONE G]", "values": [{"measurement": "Activity", "setting": "[2]", "value": 92, "unit": "%"}, {"measurement": "IC50", "setting": "[3]", "value": 700, "unit": "nM"}]}, {"smiles": "COc1cc2oc3c(c(=O)c2c(O)c1C)-c1cccc(O)c1OC3OC", "note": "(stereo not drawn) [BOERAVINONE H]", "values": [{"measurement": "Activity", "setting": "[2]", "value": 68, "unit": "%"}, {"measurement": "IC50", "setting": "[3]", "value": 2500, "unit": "nM"}]}, {"smiles": "COc1c(C)c(O)c2c(=O)c3c(oc2c1O)C(O)Oc1ccccc1-3", "note": "(stereo not drawn) [BOERAVINONE I]", "values": [{"measurement": "Emax at 20 µM", "setting": "BCRP (ABCG2)", "value": 12, "unit": "%"}]}, {"smiles": "Cc1c(O)cc2oc3oc4cc(O)ccc4c3c(=O)c2c1O", "note": "[BOERAVINONE J]", "values": [{"measurement": "Emax at 20 µM", "setting": "BCRP (ABCG2)", "value": 15, "unit": "%"}]}, {"smiles": "O=c1c2c(oc3cc(O)cc(O)c13)C(O)Oc1ccccc1-2", "note": "(stereo not drawn) [COCCINEONE B]", "values": [{"measurement": "Activity", "setting": "[1]", "value": 29, "unit": "%"}]}, {"smiles": "COc1cc2c(c(O)c1OC)C(=O)[C@]1(O)c3ccccc3OC[C@H]1O2", "note": "[COCCINEONE E]", "values": [{"measurement": "Activity", "setting": "[1]", "value": 15, "unit": "%"}]}]}
